These results are taken from US20190161499A1, “PESTICIDALLY ACTIVE 1,2,4-TRIAZOLE DERIVATIVES” (SYNGENTA PARTICIPATIONS AG, priority 2015, published 2019).

The term mortality denotes the percentage killed.

Holding throughout (type): in vivo
In assay [1] the test system is Spodoptera littoralis (Egyptian Cotton Leaf Worm). Put plainly: Comparison: insecticidal activity against Spodoptera littoralis. The settings on record: 72 h, 3 days after infestation. As to the method:
(§1) Compound B is disclosed in WO2013/063282 as an example on page 114 (Table 4, M is CH(Me), Rx=2-F, Ry=4-Cl) and compound C is disclosed in WO 2013/173218 as example on page 123 (Table 14, M is CH(Me), R4a=2-F, R4b=4-Cl). The activities of compounds B and C to treat different pests are compared with the activities of compound A according to the present invention. The tests are carried out at different concentrations (ppm).
a) Insecticidal Activity Against Spodoptera littoralis (Egyptian Cotton Leaf Worm)
Cotton leaf discs were placed onto agar in 24-well microtiter plates and sprayed with aqueous test solutions prepared from 10,000 ppm DMSO stock solutions. After drying the leaf discs were infested with five L1 larvae. The samples were assessed for mortality 3 days after infestation.

Assay [2] has as its system Diabrotica Balteata (Corn Root Worm). Put plainly: Comparison: insecticidal activity against Diabrotica balteata. The settings on record: 96 h, 4 days after infestation. On the procedure: as §1
c) Insecticidal Activity Against Diabrotica Balteata (Corn Root Worm):
Maize sprouts, placed on an agar layer in 24-well microtiter plates were treated with aqueous test solutions prepared from 10,000 ppm DMSO stock solutions by spraying. After drying, the plates were infested with L2 larvae (6 to 10 per well). The samples were assessed for mortality and growth inhibition in comparison to untreated samples 4 days after infestation.

Assay [3] deals with Plutella xylostella (Diamond Back Moth). Put plainly: Comparison: insecticidal activity against Plutella xylostella. The following applies: 120 h, 5 days after infestation. On the procedure: as §1
b) Insecticidal Activity Against Plutella xylostella (Diamond Back Moth):
24-well microtiter plates with artificial diet were treated with aqueous test solutions prepared from 10,000 ppm DMSO stock solutions by pipetting. After drying, the plates were infested with L2 larvae (10 to 15 per well). The samples were assessed for mortality and growth inhibition in comparison to untreated samples 5 days after infestation.

For `CC1CCN(Cc2nc(-c3ccc(Cl)cc3)nn2-c2ccccc2F)CC1` [A], the mortality at 12.5 ppm in assay [1] amounted to 100%; in assay [2] it was 100%; in assay [3], 50%. The mortality at 50 ppm in assay [1], in assay [2] and in assay [3] was 100% throughout. Further, the mortality at 200 ppm in assay [1], in assay [2] and in assay [3] was 100% each time.
In assay [1], `CC1CCN(Cc2cn(-c3ccc(Cl)cc3)nc2-c2ccccc2F)CC1` [Compound B] showed a mortality at 12.5 ppm of 0%, a mortality at 50 ppm of 0% and a mortality at 200 ppm of 100%. In assay [2], the mortality at 12.5 ppm is 0%, the mortality at 50 ppm came out at 100% and the mortality at 200 ppm turned out to be 100%. In assay [3], this compound displayed a mortality at 12.5 ppm of 0%, a mortality at 50 ppm of 0% and a mortality at 200 ppm of 0%.
With `CC1CCN(Cc2nn(-c3ccc(Cl)cc3)nc2-c2ccccc2F)CC1` [Compound C], in assay [1], the mortality at 12.5 ppm came to 0%, the mortality at 50 ppm is 0% and the mortality at 200 ppm stood at 50%. In assay [2], this compound displayed a mortality at 12.5 ppm of 0%, a mortality at 50 ppm of 100% and a mortality at 200 ppm of 100%. In assay [3], this compound had a mortality at 12.5 ppm of 0%, a mortality at 50 ppm of 0% and a mortality at 200 ppm of 0%.
